From patent US7087643B2, “Carbamate compounds for use in preventing or treating neuropathic pain and cluster and migraine headache-associated pain” (Ortho-McNeil Pharmaceutical Inc., priority 2001, dated 2006)

Tests used:
[1] = system: L5 and L6 spinal nerve ligated rats (mechanical allodynia); assay: Antiallodynic activity, Chung model, electronic Von Frey probes; type: in vivo, rat (Rj: Wistar (Han)); conditions: for % Change (force required to induce paw-withdrawal vs controls): ligatured paw
From the text: (§1) The procedure used to test the antiallodynic activity of a compound of Formula (I) was the procedure for the measurement of allodynia found in the Chung Model (Kim S. H. and Chung J. M., An Experimental Model for Peripheral Neuropathy Produced by Segmental Spinal Nerve Ligation in the Rat, Pain, 1992, 50, 355–363).
Pathogen-free, male Rj: Wistar (Han) rats (300–380 g) were purchased from Elevage Janvier, 53940 Le Genest-Saint-Isle, France. The animals were maintained on a 12-h light/dark cycle (lights on from 7:00–19:00) in a controlled ambient temperature of 21±1° C., and relative humidity maintained at 40–70%. The animals had free access to food (UAR 113) and tap water until tested.
Rats were anesthetized (sodium pentobarbital 40 mg/kg i.p.). A ligature was tied tightly around the left L5 and L6 spinal nerves. The rats received an i.m. injection of 50 000 IU Penicillin (Diamant®) and were allowed to recover. This procedure results in mechanical allodynia in the left hind paw. Two weeks after the surgery, when the allodynic state was fully developed, rats were submitted consecutively to tactile stimulation of both the non-lesioned and the lesioned hindpaws.
The animals were placed on an elevated grid floor in Plexiglass boxes (19×11.5×13 cm). The tip of an electronic Von Frey probe (Bioseb, Model 1610) was then applied with increasing pressure to the lesioned and non-lesioned hindpaws and the force required to induce paw-withdrawal was automatically recorded. Prior to receiving drug treatment all animals were submitted to tactile stimulation and assigned to treatment groups matched on the basis of their pain response. This procedure was carried out 3 times for each paw and the mean paw force was calculated to provide basic scores per animal. Data were expressed as percent change (means±SEM) of effectiveness from the controls. Statistical analysis was done using non-paired and paired Student's t tests.
As summarized in Table 2 below, the enantiomer of Formula (Ic) was evaluated at the doses 10, 30 and 100 mg/kg (n=8), administered p.o. in a volume of 5 mL/kg. Morphine ([…]) was used as reference substance. Control animals received a p.o. administration of vehicle. The test was performed blind 30, 60 and 90 minutes after drug administration.

[2] = system: L5 spinal nerve ligated rats (mechanical allodynia, Chung model of neuropathic pain); assay: Antiallodynic activity, Chung model, manually applied von Frey probes; type: in vivo, rat (Sprague-Dawley); conditions: for % Maximum Possible Effect: time of peak effect
Protocol: as §1
Pathogen-free, male albino Sprague-Dawley rats, 200 g, were purchased from Harlan Industries (Indianapolis, Ind.) and maintained on a 12-h light/dark cycle (lights on at 06:00 h) in a climate-controlled room with food and water available ad libitum up to the time of the testing and food withdrawn 18 hr prior to testing.
The rats were anesthetized with isoflurane inhalant anesthesia. The left lumbar spinal nerve at the level of L5 was tightly ligated (4-0 silk suture) distal to the dorsal root ganglion and prior to entrance into the sciatic nerve, as described by Kim and Chung. The incisions were closed and the rats were allowed to recover under conditions described above. This procedure results in mechanical allodynia in the left hind paw. The sham operation, when performed, consisted of a similar surgical procedure lacking only the final ligation of the spinal nerve. Mechanical (tactile) allodynia was assessed by recording the pressure at which the affected paw (ipsilateral to the site of nerve injury) was withdrawn from graded stimuli (von Frey filaments ranging from 4.0 to 148.1 mN) applied by hand perpendicularly to the plantar surface of the paw (between the footpads) through wire-mesh observation cages. A paw withdrawal threshold (PWT) was determined by sequentially increasing and decreasing the stimulus strength and analyzing withdrawal data using a Dixon non-parametric test, as described by Chaplan et al (Chaplan S. R., Bach F. W., Pogrel J. W., Chung J. M. and Yaksh T. L., Quantitative Assessment of Tactile Allodynia in the Rat Paw, J Neurosci Meth, 1994, 53, 55–63). Normal rats, sham operated rats, and the contralateral paw of L5 ligated rats withstand at least 148.1 mN (equivalent to 15 g) of pressure without responding. […]

CN1CC[C@]23c4c5ccc(O)c4O[C@H]2[C@@H](O)C=C[C@H]3[C@H]1C5 [morphine, reference compound] was tested, and the “% Change (force required to induce paw-withdrawal vs controls)” value (“% Change” for short) ([1]; 128 mg/Kg morphine positive control) was 38%.

With NC(=O)OC[C@H](OC(N)=O)c1ccccc1Cl [Formula (Ic)] the “% Maximum Possible Effect” value ([2]; 30 mg/Kg po, 30 minutes after oral dosing, n=5) was 0%, the “% Maximum Possible Effect” value ([2]; 100 mg/Kg po, 30 to 60 minutes after oral dosing, n=10) was 25.7% and the “Duration of antiallodynic response” value ([2]; 30 and 100 mg/Kg po, responses measured at 0.5, 1, 2 and 4 hours post dosing) was “responses returned to baseline by one hour”. The “% Change” value ([1]; 10 mg/kg p.o., 60 minute post-dosing, n=8) was 69%, the “% Change” value ([1]; 30 mg/kg p.o., 60 minute post-dosing, n=8) was 115% and the “% Change” value ([1]; 100 mg/kg p.o., 60 minute post-dosing, n=8) was 88%. The “Effect on non-ligatured paw withdrawal force” value ([1]; 10, 30 and 100 mg/Kg p.o., 60 minute post-dosing) was “without affecting the non-ligatured paw” and the “Anti-allodynic effect at 90 minutes post-dosing” value ([1]; 10, 30 and 100 mg/Kg p.o., 90 minutes post-dosing) was “no longer present by 90 minutes post-dosing”.
